The text below walks through data of ChEMBL document CHEMBL1127217, “Enantioselective acetylation of primary amines by Cylindrocarpon radicicola” (Bioorg Med Chem Lett, 1993).

Structures are written as SMILES.

In test [1] the test system is Ilyonectria destructans. In words: N-Acylation of amine was determined after 22 hr incubation at 250 mg/mL concentration using Cylindrocarpon radicicola resting cells to amide expressed as enantioselectivity coefficient (amine/amide): 48/52.
Test [2] concerns Ilyonectria destructans. In words: N-Acylation of compound was determined after 22 hr incubation at 250 mg/mL concentration using Cylindrocarpon radicicola resting cells and residual amine was evaluated.
In test [3] the test system is Ilyonectria destructans. Put plainly: N-Acylation of amine was determined after 22 hr incubation at 250 mg/mL concentration using Cylindrocarpon radicicola resting cells to amide expressed as enantioselectivity coefficient (amine/amide): 53/47.
The subject of test [4] is Ilyonectria destructans. Put plainly: N-Acylation of amine was determined after 22 hr incubation at 250 mg/mL concentration using Cylindrocarpon radicicola resting cells to amide expressed as enantioselectivity coefficient (amine/amide): 59/41.
The test system of test [5] is Ilyonectria destructans. In words: N-Acylation of amine was determined after 22 hr incubation at 250 mg/mL concentration using Cylindrocarpon radicicola resting cells to amide expressed as enantioselectivity coefficient (amine/amide): 52/48.
Test [6] has as its system Ilyonectria destructans. Put plainly: N-Acylation of amine was determined after 22 hr incubation at 250 mg/mL concentration using Cylindrocarpon radicicola resting cells to amide expressed as enantioselectivity coefficient (amine/amide): 65/35.

In the test on Ilyonectria destructans [1], `NC(Cc1ccccc1)c1ccccc1` (stereo not given) showed an Enantioselectivity coefficient of 48. Further, in the test on Ilyonectria destructans [2], the Residual amine (ee) is 80%.
In the case of `CC(N)COc1ccccc1` (stereo not given), in the test on Ilyonectria destructans [3], the Enantioselectivity coefficient is 53. The same molecule registered a Residual amine (ee) with Ilyonectria destructans [2] of 95%.
`NC(c1ccccc1)c1ccc(Cl)cc1` (stereo not given) returned a Residual amine (ee) in the test on Ilyonectria destructans [2] of 0%. The Enantioselectivity coefficient with Ilyonectria destructans [4] amounted to 59.
Regarding `NC1CCc2ccccc21` (stereo not given), the Enantioselectivity coefficient with Ilyonectria destructans [5] came out at 52. This molecule had a Residual amine (ee) in the test with Ilyonectria destructans [2] of 0%.
`CC(CN)c1ccccc1` (stereo not given) displayed a Residual amine (ee) in the test on Ilyonectria destructans [2] of 0%. The molecule also displayed an Enantioselectivity coefficient with Ilyonectria destructans [6] of 65.
